Here are results for nine molecules from PubChem BioAssay (NCI).

Among the test systems are LOX IMVI melanoma; CAKI-1 renal; HCT-116 colon; OVCAR-3 ovarian; OVCAR-4 ovarian; A549 NSCLC; HS 578T breast; IGROV1 ovarian.
Experiment in all cases: DTP human tumour cell line panel, 48 h

Structures are written as SMILES.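 Briefly, cells in 96-well plates were exposed to five compound concentrations for 48 h, and endpoints were estimated by linear interpolation. GI50 is the concentration that inhibits growth by half. The concentration for full growth arrest is given as TGI.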 A value given as a limit tells only on which side of the number the result lay.

Regarding `O=C(Nc1ccc(I)cc1F)c1cc(F)ccc1O`, the GI50 – broadly, the concentration at which growth is held to half of that of the control – in the test on LOX IMVI melanoma is 0.418 µM; in the test on CAKI-1 renal, 0.342 µM; in the test with HCT-116 colon, 0.352 µM; in the test on OVCAR-3 ovarian, 0.395 µM; in the test on OVCAR-4 ovarian, 0.396 µM; in the test on A549 NSCLC, 2.24 µM. The GI50 was 0.44 µM with HS 578T breast and 0.404 µM with IGROV1 ovarian. Further, the concentration for total growth inhibition (TGI) (usually the concentration giving total growth inhibition) with LOX IMVI melanoma is 3.91 µM; with CAKI-1 renal it was 2.86 µM; in the test on HCT-116 colon it was 1.46 µM; in the test with OVCAR-3 ovarian, greater than 56.4 µM; with OVCAR-4 ovarian it was 17.2 µM; in the test with A549 NSCLC, greater than 100 µM. Besides, the TGI with HS 578T breast was 5.29 µM; in the test on IGROV1 ovarian it was greater than 100 µM.
As to `CCn1c(-c2nonc2N)nc2c(C#CC(C)(C)O)ncc(OCC3CCNCC3)c21`, the GI50 is 7.04 µM in the test with LOX IMVI melanoma; 17.2 µM with CAKI-1 renal; 6.67 µM in the test with HCT-116 colon; 7.07 µM with OVCAR-3 ovarian; greater than 25 µM with OVCAR-4 ovarian; 10.7 µM in the test with A549 NSCLC. Also, the GI50 in the test with HS 578T breast is 3.83 µM; in the test with IGROV1 ovarian, 1.34 µM. Moreover, the concentration for total growth inhibition (TGI) with LOX IMVI melanoma is greater than 25 µM; in the test on CAKI-1 renal, greater than 25 µM; with HCT-116 colon it was greater than 20.9 µM; in the test on OVCAR-3 ovarian, greater than 23.6 µM; in the test with OVCAR-4 ovarian, greater than 25 µM; in the test on A549 NSCLC, greater than 25 µM. Moreover, the total growth inhibition concentration (TGI) in the test with HS 578T breast is 15.4 µM; in the test with IGROV1 ovarian, greater than 25 µM.
With `COC(=O)C1=C(C)NC(C)=C(C(=O)OC)C1c1ccccc1[N+](=O)[O-]`, the GI50 in the test with LOX IMVI melanoma was greater than 100 µM; with CAKI-1 renal, 38.8 µM; in the test on HCT-116 colon, greater than 100 µM; with OVCAR-3 ovarian, 93.2 µM; in the test with OVCAR-4 ovarian, 61.9 µM; with A549 NSCLC it was greater than 100 µM. In addition, the values for the GI50 with HS 578T breast and in the test with IGROV1 ovarian were 32.4 µM and 57.2 µM, respectively. The total growth inhibition concentration (TGI) with LOX IMVI melanoma, in the test on CAKI-1 renal, in the test with HCT-116 colon, in the test with OVCAR-3 ovarian, in the test on OVCAR-4 ovarian and in the test with A549 NSCLC was greater than 100 µM in each case. Besides, the concentration for total growth inhibition (TGI) in the test on HS 578T breast and with IGROV1 ovarian was greater than 100 µM each time.
Take `COC(=O)CCCCCCCCC(=O)c1c(C)[nH]c(/C=C2\N=C(c3ccc[nH]3)C=C2OC)c1C`: the GI50 in the test on LOX IMVI melanoma was 0.207 µM; in the test with CAKI-1 renal it was 26.6 µM; in the test with HCT-116 colon it was 8.09 µM; in the test with OVCAR-3 ovarian it was greater than 48.1 µM; in the test on OVCAR-4 ovarian, greater than 85.9 µM; with A549 NSCLC it was 5.18 µM. Besides, the GI50 was greater than 33 µM in the test with HS 578T breast and greater than 67.3 µM in the test on IGROV1 ovarian. The TGI in the test on LOX IMVI melanoma was 0.466 µM; with CAKI-1 renal it was greater than 87.7 µM; in the test with HCT-116 colon, greater than 56 µM; in the test with OVCAR-3 ovarian, greater than 86.3 µM; with OVCAR-4 ovarian it was greater than 100 µM; with A549 NSCLC it was greater than 50.2 µM. Also, the total growth inhibition concentration (TGI) with HS 578T breast and in the test on IGROV1 ovarian was greater than 100 µM throughout.
Take `CCCCOc1nc2ccccc2cc1C1CNC(=O)c2ccccc2N1` (centres undefined): the GI50 in the test with LOX IMVI melanoma is 3.24 µM; in the test with CAKI-1 renal it was 3.11 µM; with HCT-116 colon it was 1.92 µM; in the test with OVCAR-3 ovarian, 1.56 µM; in the test with OVCAR-4 ovarian, 4.77 µM; with A549 NSCLC, 4.25 µM. Moreover, the GI50 in the test on HS 578T breast was 2.63 µM; in the test with IGROV1 ovarian it was 4.63 µM. In addition, the TGI amounted to 15.4 µM in the test with LOX IMVI melanoma; 23.6 µM in the test on CAKI-1 renal; 5.47 µM in the test with HCT-116 colon; 3.86 µM in the test with OVCAR-3 ovarian; 24.8 µM in the test on OVCAR-4 ovarian; 15.9 µM in the test with A549 NSCLC. Further, the TGI came to 19 µM in the test with HS 578T breast and 22.9 µM in the test with IGROV1 ovarian.
For `CCOC(=O)Nc1ccc2nc(Sc3ccc(Cl)cc3)sc2c1`, the GI50 in the test on LOX IMVI melanoma was 4.45 µM; with CAKI-1 renal it was 1.95 µM; in the test on HCT-116 colon, 1.19 µM; in the test on OVCAR-3 ovarian, 1.89 µM; in the test on OVCAR-4 ovarian, 20.7 µM; with A549 NSCLC it was 6.3 µM. For the same molecule, the values for the GI50 in the test on HS 578T breast and in the test on IGROV1 ovarian were 7.25 µM and 5.09 µM, respectively. Also, the TGI was 25.3 µM in the test with LOX IMVI melanoma; 42 µM with CAKI-1 renal; 39.3 µM in the test with HCT-116 colon; greater than 32.6 µM in the test with OVCAR-3 ovarian; greater than 100 µM in the test on OVCAR-4 ovarian; greater than 100 µM in the test on A549 NSCLC. Further, the concentration for total growth inhibition (TGI) is 97.9 µM in the test on HS 578T breast and greater than 100 µM in the test with IGROV1 ovarian.
Take `CCOC(=O)CCC(NC(=O)c1ccc(Nc2nc3cc(N)cc(N)c3nc2-c2ccccc2)cc1)C(=O)OCC` (centres undefined): the GI50 is 25.4 µM in the test on LOX IMVI melanoma; greater than 52.6 µM in the test with CAKI-1 renal; greater than 38.7 µM in the test on HCT-116 colon; 13.4 µM with OVCAR-3 ovarian; 44.5 µM with OVCAR-4 ovarian; 27.8 µM with A549 NSCLC. In addition, the GI50 in the test with HS 578T breast is 33.3 µM; with IGROV1 ovarian, 22.6 µM. In addition, the TGI in the test on LOX IMVI melanoma was greater than 100 µM; in the test on CAKI-1 renal, greater than 100 µM; with HCT-116 colon, greater than 71.6 µM; in the test with OVCAR-3 ovarian, 39.4 µM; with OVCAR-4 ovarian, greater than 100 µM; in the test on A549 NSCLC, greater than 100 µM. In addition, the TGI with HS 578T breast was 75 µM; in the test on IGROV1 ovarian, greater than 94.7 µM.
Regarding `Fc1ccc(-c2ncn(C3CCNCC3)c2-c2ccnc(Oc3ccc(Oc4ccccc4)cc3)n2)cc1`, the GI50 was 3.15 µM in the test on LOX IMVI melanoma; 3.92 µM in the test with CAKI-1 renal; 3.47 µM with HCT-116 colon; 4.36 µM in the test with OVCAR-3 ovarian; 3.78 µM with OVCAR-4 ovarian; 4.09 µM in the test with A549 NSCLC. Further, the GI50 was 1.73 µM in the test with HS 578T breast and 3.78 µM in the test on IGROV1 ovarian. Also, the TGI with LOX IMVI melanoma is 7.09 µM; in the test with CAKI-1 renal, 7.74 µM; in the test on HCT-116 colon, 6.76 µM; in the test with OVCAR-3 ovarian, 7.94 µM; in the test on OVCAR-4 ovarian it was 7.27 µM; in the test with A549 NSCLC, 7.84 µM. In addition, the TGI with HS 578T breast was determined as 6.89 µM; in the test with IGROV1 ovarian, 7.5 µM.
With `O=C(Nc1ccc(Oc2cccc(Cl)c2)c(Cl)c1)c1cccnc1`, the GI50 with LOX IMVI melanoma is 2.9 µM; in the test on CAKI-1 renal, 2.63 µM; in the test on HCT-116 colon it was 2.11 µM; with OVCAR-3 ovarian it was 1.22 µM; in the test on OVCAR-4 ovarian it was 14.5 µM; in the test on A549 NSCLC it was 2.08 µM. In addition, the GI50 is 1.83 µM in the test on HS 578T breast and 2.76 µM in the test on IGROV1 ovarian. Besides, the total growth inhibition concentration (TGI) in the test with LOX IMVI melanoma was 13 µM; in the test with CAKI-1 renal, 36.6 µM; with HCT-116 colon it was greater than 50 µM; with OVCAR-3 ovarian, 4.28 µM; in the test with OVCAR-4 ovarian it was greater than 50 µM; in the test with A549 NSCLC it was greater than 50 µM. The values for the total growth inhibition concentration (TGI) in the test with HS 578T breast and with IGROV1 ovarian were 35.5 µM and greater than 50 µM, respectively.
